Reference: PubChem BioAssay (NCI)
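A five-concentration, 48-hour dose response in 96-well plates underlies each endpoint, interpolated linearly between surrounding concentrations. Here, GI50 denotes the concentration required for 50% inhibition of growth. TGI: concentration producing complete growth inhibition.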

Columns and labels:
Experiment in all cases: inhibition of tumour cell growth, NCI panel, 48 h
SF-268 CNS = system: SF-268 CNS
HCC-2998 colon = system: HCC-2998 colon
NCI-H23 lung = system: NCI-H23 lung
MOLT-4 leukemia = system: MOLT-4 leukemia
SN12C renal = system: SN12C renal
COLO 205 colon = system: COLO 205 colon
PC-3 prostate = system: PC-3 prostate
ACHN renal = system: ACHN renal
NCI/ADR-RES ovarian = system: NCI/ADR-RES ovarian
A498 renal = system: A498 renal
NCI-H226 lung = system: NCI-H226 lung
A549 NSCLC = system: A549 NSCLC
SK-MEL-28 melanoma = system: SK-MEL-28 melanoma
SK-MEL-2 melanoma = system: SK-MEL-2 melanoma
CAKI-1 renal = system: CAKI-1 renal
OVCAR-4 ovarian = system: OVCAR-4 ovarian
OVCAR-3 ovarian = system: OVCAR-3 ovarian
HOP-92 NSCLC = system: HOP-92 NSCLC
U251 CNS = system: U251 CNS
RXF 393 renal = system: RXF 393 renal
MCF7 breast = system: MCF7 breast
NCI-H460 lung = system: NCI-H460 lung
DU-145 prostate = system: DU-145 prostate
HS 578T breast = system: HS 578T breast
CCRF-CEM leukemia = system: CCRF-CEM leukemia
EKVX NSCLC = system: EKVX NSCLC
NCI-H522 lung = system: NCI-H522 lung
T-47D breast = system: T-47D breast

Compound: COc1ccc(C(=O)Nc2sc3c(c2C#N)CCC(=O)C3)cc1C(F)(F)F
- GI50 (SF-268 CNS): 2.03 µM
- TGI (SF-268 CNS): 6.6 µM
- GI50 (HCC-2998 colon): 1.45 µM
- TGI (HCC-2998 colon): 3.2 µM
- GI50 (NCI-H23 lung): 0.537 µM
- TGI (NCI-H23 lung): 2.71 µM
- GI50 (MOLT-4 leukemia): 0.322 µM
- TGI (MOLT-4 leukemia): > 19.7 µM
- GI50 (SN12C renal): 0.966 µM
- TGI (SN12C renal): 6.19 µM
- GI50 (COLO 205 colon): 0.582 µM
- TGI (COLO 205 colon): 1.62 µM
- GI50 (PC-3 prostate): 0.317 µM
- TGI (PC-3 prostate): 4 µM
- GI50 (ACHN renal): 0.375 µM
- TGI (ACHN renal): 1.26 µM
- GI50 (NCI/ADR-RES ovarian): 1.3 µM
- TGI (NCI/ADR-RES ovarian): 3.64 µM
- GI50 (A498 renal): 5.74 µM
- TGI (A498 renal): 36.1 µM
- GI50 (NCI-H226 lung): 2.31 µM
- TGI (NCI-H226 lung): 7.09 µM
- GI50 (A549 NSCLC): 2.78 µM
- TGI (A549 NSCLC): > 100 µM
- GI50 (SK-MEL-28 melanoma): 0.882 µM
- TGI (SK-MEL-28 melanoma): 2.33 µM
- GI50 (SK-MEL-2 melanoma): 1.67 µM
- TGI (SK-MEL-2 melanoma): 4.06 µM
- GI50 (CAKI-1 renal): 0.491 µM
- TGI (CAKI-1 renal): 1.84 µM
- GI50 (OVCAR-4 ovarian): 1.11 µM
- TGI (OVCAR-4 ovarian): 2.76 µM
- GI50 (OVCAR-3 ovarian): 0.845 µM
- TGI (OVCAR-3 ovarian): 2.44 µM
- GI50 (HOP-92 NSCLC): 0.708 µM
- TGI (HOP-92 NSCLC): 2.53 µM
- GI50 (U251 CNS): 0.723 µM
- TGI (U251 CNS): 2.53 µM
- GI50 (RXF 393 renal): 0.434 µM
- TGI (RXF 393 renal): 1.69 µM
- GI50 (MCF7 breast): 0.408 µM
- TGI (MCF7 breast): 3.15 µM
- GI50 (NCI-H460 lung): 2.11 µM
- TGI (NCI-H460 lung): 6.73 µM
- GI50 (DU-145 prostate): 2.91 µM
- TGI (DU-145 prostate): > 30.4 µM
- GI50 (HS 578T breast): 0.862 µM
- TGI (HS 578T breast): 3.68 µM
- GI50 (CCRF-CEM leukemia): 0.27 µM
- TGI (CCRF-CEM leukemia): > 100 µM
- GI50 (EKVX NSCLC): 2.35 µM
- TGI (EKVX NSCLC): 8.76 µM
- GI50 (NCI-H522 lung): 0.225 µM
- TGI (NCI-H522 lung): 0.753 µM
- GI50 (T-47D breast): 0.352 µM
- TGI (T-47D breast): 2.08 µM
